{
  "source": "patent EP1452605A1",
  "about": "“Method for determining antiviral activity” (Universiteit Utrecht Holding B.V., priority 2003, dated 2004)",
  "key": {"HIV-1Ba-L": {"system": "HIV-1Ba-L", "test": "HIV-1 infection of PBMC, p24-core antigen ELISA", "assay_type": "cell-based", "description": "(§1) To correct for the input virus, an extra control consisting of medium containing the same amount of input virus as added to the cells was included in the experiment. The amount of p24 in this control was subsequently subtracted from the p24 values of the samples in order to obtain the exact amount of p24 produced by the cells. p24-core antigen quantification by ELISA After 2 or 7 days incubation, samples of the supernatants were collected, inactivated by addition of Empigen (Calbiochem, La Jolla, CA, USA) and by heat inactivation at 56°C for 30 min. p24-core antigen concentration was determined by an enzyme linked immunoabsorbent assay (ELISA) (AMPAK™, DAKO, Cambridgeshire, UK) as described previously ^18,19. The optical density values were converted into p24 concentration (ng/ml) with the use of a calibration curve made by serial dilutions of recombinant p24 protein (NIBSC, UK) that was submitted to the same treatment as the samples.\n(§2) To correct for the input virus, an extra control consisting of medium containing the same amount of input virus as added to the cells was included in the experiment. The amount of p24 in this control was subsequently subtracted from the p24 values of the samples in order to obtain the exact amount of p24 produced by the cells.\n(§3) After 7 days incubation, samples of the supernatants were collected, inactivated by addition of Empigen (Calbiochem, La Jolla, CA, USA) and by heat inactivation at 56°C for 30 min. p24-core antigen concentration was determined by an ELISA (AMPAK™, DAKO, Cambridgeshire, UK) as described previously ^39,40. The optical density values were converted into p24 concentration (ng/ml) with the use of a calibration curve made by serial dilutions of recombinant p24 protein (NIBSC, UK) that was submitted to the same treatment as the samples.\nas §2\nas §3, with “enzyme linked immunoabsorbent assay (ELISA)” for “ELISA”, “15,16.” for “^39,40.”"}, "HIV-1AT": {"system": "HIV-1AT", "test": "HIV-1 infection of PBMC, p24-core antigen ELISA", "assay_type": "cell-based", "details": "Human immunodeficiency virus 1, 168 h; PBMC infected with HIV-1AT, p24 antigen after 7 days", "description": "as §1"}, "HIV-1HXB2": {"system": "HIV-1HXB2", "test": "HIV-1 infection of PBMC, p24-core antigen ELISA", "assay_type": "cell-based", "details": "Human immunodeficiency virus 1, 168 h; PBMC infected with HIV-1HXB2, p24 antigen after 7 days", "description": "as §1"}, "[1]": {"test": "Cellular viability assay (MTT) of PBL", "assay_type": "cell-based", "details": "human, 7 days, read-out: TC50"}, "[2]": {"system": "several HIV-1 strains (macrophage-tropic and/or lymphocytotropic)", "test": "HIV-1 replication in primary cells (summary over strains and cell types)", "assay_type": "cell-based", "details": "Human immunodeficiency virus 1, read-out: 50% inhibitory concentration values", "description": "as §1"}, "CrFK cells": {"system": "CrFK cells", "test": "Cellular viability assay (MTT) of CrFK cells", "assay_type": "cell-based, feline"}, "RSV serotype A": {"system": "RSV serotype A", "test": "RSV infection of HEp-2 cells, FACS with FITC anti-RSV antibody", "assay_type": "cell-based, Respiratory syncytium virus (RSV)", "details": "HEp-2 cells, 4, 5 and 6 days, all APHS concentrations tested", "description": "RSV infection of the HEp-2 cell line was performed as described elsewhere (Hament J-M et al., submitted for publication). Briefly, HEp-2 cells were recovered from the culture flasks by trypsinization. Concentrations of HEp-2 cells were determined by microscopic observation in order to have a confluent monolayer at the day of measurement. HEp-2 cells were incubated with APHS and infected with different dilutions of RSV in order to have a good infection at the day of measurement. […] The cells were washed with PBS^2+ (PBS containing 0.15 mM Ca^2+ and 0.5 mM Mg^2+) and incubated with murine-anti-RSV monoclonal antibody conjugated to fluorescein isothiocyanate (FITC) (DAKO, Cambridgeshire, UK) for 15 minutes at 37 °C. Afterwards, cells were washed and resuspended in PBS^2+. Percentage of fluorescent cells was analyzed by FACSCalibur flow cytometer (Becton Dickinson, CA, USA) with computer assisted evaluation data (CellQuest Pro)."}, "MHV-A59": {"system": "MHV-A59", "test": "MHV infection of mouse L cells, CPE scoring", "assay_type": "cell-based, Mouse hepatitis virus (MHV)", "details": "24h, 143 to 0.009 µM", "description": "(§4) After 24h, the cytopatic effect (CPE) of the virus and the cytotoxicity of the compounds were scored by microscopic observation."}, "Mouse L cells": {"system": "Mouse L cells", "test": "Cytotoxicity in mouse L cells by microscopic observation", "description": "as §4"}, "[3]": {"test": "Cellular viability assay (MTT) of HFF overlayed with BHK cells", "assay_type": "cell-based, Human", "details": "hff and bhk cells; read-out: TC50 (the source's name)"}, "HFF and BHK cells": {"system": "HFF and BHK cells", "test": "Cellular viability assay (MTT) of HFF overlayed with BHK cells", "assay_type": "cell-based, Human"}, "[4]": {"details": "concentrations of APHS up to 100 mg/kg; cited from earlier work"}, "3096": {"system": "3096", "test": "Drug susceptibility assay (cell-killing MTT assay) in MT-2 cells", "details": "Human immunodeficiency virus 1, MT2, 120 h", "experimental": "(§5) The cells were maintained at 37°C, 5% CO2. One day prior to the experiments, the cells were passaged 1:1 in a concentration of 1 × 10^6 cells/ml.\n(§6) The genes that contain the drug resistance mutations are excised from the clinical isolates and cloned into the genetic background of HXB2. Thus all tested HIV-1 strains have the same genetic background. […] This strain contains an insertion of two a.a. between codons 68 and 69 of RT as well as an a.a. change at codon 67.\n(§7) After 5 days of incubation a cellular viability assay was performed as described above. In this case, the amount of formazan reflects the number of cells protected by the drug against killing by the virus and is used as a read out for drug susceptibility."}, "4602": {"system": "4602", "test": "Drug susceptibility assay (cell-killing MTT assay) in MT-2 cells", "details": "Human immunodeficiency virus 1, MT2, 120 h", "experimental": "as §5, §6, §7"}},
  "data": [
    {"compound": "CCCCC#CCSc1ccccc1OC(C)=O", "note": "[APHS, o-(acetoxyphenyl)hept-2-ynyl sulfide]", "values": [
      {"measurement": "IC50", "setting": "HIV-1Ba-L; Human immunodeficiency virus 1, 168 h, PBMC infected with HIV-1Ba-L, p24 antigen after 7 days, read-out: IC50", "result": 6, "unit": "µM"},
      {"measurement": "inhibition at 30 µM", "setting": "HIV-1Ba-L; Human immunodeficiency virus 1, 30 µM APHS, PBMC, read-out: inhibit HIV-1Ba-L replication", "result": 80, "unit": "%"},
      {"measurement": "IC50", "setting": "HIV-1AT", "result": 7, "unit": "µM"},
      {"measurement": "IC50", "setting": "HIV-1HXB2", "result": 11, "unit": "µM"},
      {"measurement": "CC50 at 168 h", "setting": "[1]", "result": 147, "unit": "µM"},
      {"measurement": "IC50", "setting": "[2]", "result": "~10", "unit": "µM"},
      {"measurement": "cytotoxicity for CrFK cells", "setting": "CrFK cells", "result": "not cytotoxic"},
      {"measurement": "inhibition of RSV replication", "setting": "RSV serotype A", "result": "no inhibition of RSV replication"},
      {"measurement": "effect on MHV replication (CPE)", "setting": "MHV-A59", "result": "no effect"},
      {"measurement": "cytotoxicity by microscopic observation", "setting": "Mouse L cells", "result": "not cytotoxic"},
      {"measurement": "CC50", "setting": "[3]", "result": 374, "unit": "µM"},
      {"measurement": "cytotoxicity for HFF and BHK cells", "setting": "HFF and BHK cells", "result": "not cytotoxic"},
      {"measurement": "toxicity in the rat air pouch model", "setting": "[4]", "result": "no toxicity"},
      {"measurement": "IC50", "setting": "3096", "result": 4, "unit": "µM"},
      {"measurement": "IC50", "setting": "4602", "result": 5, "unit": "µM"}
    ]}
  ]
}
